Several values for one entry are separate records, joined by “and”; a condition that tells them apart may be missing. Equal entries are not always repeated.

Assay [1] has as its system youths symptomatic for an autistic disorder. The note with it: mean dose 1,110 mg/day, 10 to 30 weeks; cited from earlier work.
In a further assay the test system is NMDA glutamate receptor. The note with it: animal studies; cited from earlier work.
For the next assay, the system named is BDNF. The assay can be described thus: plasma BDNF by ELISA in the FXS open-label trial. The class given is in vivo, human. As to the method:
Blood samples for BDNF were drawn at Screen and at Week 10 of the study. BDNF analysis was done blind to patient assignment (pre- or post-treatment). Approximately 4 ml of blood was collected in EDTA containing tubes. Within 30 minutes of collection, the blood was centrifuged at 1000 g at 2-8° C. for 15 minutes. Plasma was collected and an additional centrifugation of the collected plasma at 1000 g at 2-8° C. for 10 minutes was done to completely remove platelets from the samples. All plasma samples were stored at −80° C. BDNF assays were done at the same time with all samples in triplicate. To determine plasma BDNF, a sensitive ELISA based method was used using human BDNF ELISA kit from R&D systems (Minneapolis, Minn.; USA) that is validated for detection of BDNF present in human plasma (Grassi-Oliveira et al., 2008). The amount (pg/ml) of BDNF present in the plasma samples was determined from the pg value obtained in the standard curve using a known amount of pure human BDNF, which was run at the same time with subjects' samples.
All data were recorded in IBM SPSS Statistics Professional for statistical analysis. Potential differences in pre- and post-treatment mean values of all outcome measures employed were calculated using paired t-tests. […] Effect sizes were calculated by taking the mean change from baseline to endpoint divided by the standard deviation at baseline.

Another assay deals with sAPP. As to the kind of experiment: plasma sAPP total by ELISA pre- and post-acamprosate. It is filed as in vivo, human. An excerpt: For sAPP levels, the Test plasma samples should be measured soon after collection. […] Just before assay, we thawed the test samples at a low temperature and mixed them completely. The plasma samples should be diluted appropriately with the EIA buffer, if needed. Duplicate measurement of test samples and standard are recommended. We used test samples in neutral pH range, and avoided the contaminations of organic solvent that may affect the measurement. Regarding the standard to quantify levels of sAPP, we prepared a series of sAPP standards in EIA buffer by serial dilutions, from 0.39 ng/mL to 25 ng/mL.
The ELISA plate was pre-coated with anti-human APP (R12A1) mouse IgG (IBL). First, the wells for reagent blank was determined, and 100 μL each of “EIA buffer” or 10 mM NaHCO3 buffer was added into the wells. Likewise, wells were assigned for test sample blank, test sample and diluted standard. Then 100 μL each of test sample blank, test sample and dilutions of standard was added into the appropriate wells. The test sample included the plasma sample from each subject, which may vary from 5-25 μl, made up to 100 μL with the EIA buffer. Each pre-coated plates was incubated overnight at 4° C. after covering it tightly with a plate lid. The plate was kept onto a rocker with gentle shaking. The next day, each well of the pre-coated plate was vigorously washed with wash buffer containing 0.05% Tween20 in phosphate buffer. This was performed by filling each well with wash buffer, leaving the pre-coated plate laid for 15-30 seconds and removing wash buffer completely from the plate by snapping. This procedure was repeated five times. After removing the remaining liquid from all wells completely by snapping the plate onto paper towel, we added 100 μL of labeled antibody solution into the wells of test samples, diluted standard and test sample blank. HRP labeled anti-Human APP (R101A4) mouse IgG from IBL was used. The plate was incubated for 30 minutes at 4° C. after covering it with plate lid, and then washed the plate 5 times in the same manner as described before. To develop the color, 100 μL of the Chromogen (TMB solution) was adding into the wells, and the plate was incubated for 30 minutes at room temperature in the dark.
When the liquid started turning blue (by addition of the Chromogen), 100 μL of the Stop solution (1N H2SO4) was added into the wells. […] A plate reader was used and measurements were conducted at 450 nm against a reagent blank. […]
The first project enrolled 12 youth aged 5 to 17 years with fragile X syndrome and comorbid ASD in a 10-week open-label trial of acamprosate. […] Plasma sAPP total and sAPPα were determined in serum using the ELISA kit obtained from Immuno Biological Laboratories (IBL, Gumma, Japan). […]

On to `CC(=O)NCCCS(=O)(=O)O.[Ca]` [acamprosate, Calcium Acetylhomotaurine], for which, in assay [1], the “youths judged treatment responders” value was “five of six”. The “action at the NMDA glutamate receptor” value with NMDA glutamate receptor is “bind and act as an antagonist”. In addition, in the assay on BDNF (10 subjects with FXS), the “change in plasma BDNF from screen to Week 10” value is given as “All subjects experienced an increase”. Moreover, the “mean subject plasma BDNF after treatment” value in the assay with BDNF (Week 10, 10 subjects with FXS, screen 790.4±1350.4 pg/mL, p=0.01) came to 1007.6 ± 1493.2 pg/mL. In the assay on sAPP (individual patients 1-6, baseline to Week 12), the “fractional change in sAPP (total)-CP” value is −0.8279 and −0.3066 and −0.0102 and −0.1029 and −0.437 and −0.544. Moreover, the “mean sAPP total post-treatment” value in the assay on sAPP (pooled 15 participants (9 FXS, 6 idiopathic ASD), pre-treatment 32.6±38.3 ng/mL, p=0.01) was 21.4 ± 32.3 ng/mL. Moreover, the “levels of both sAPP total and sAPPα, direction of change per sample” value in the assay with sAPP (pooled 15 subjects) is “reduced with treatment in every sample tested except in one subject with idiopathic ASD where sAPPα was unchanged”. Moreover, in the assay on sAPP (six subjects of the 12-week trial, baseline 34.7 ng/mL, p=0.02), the “mean sAPP total levels at endpoint” value is given as 19.3 ng/mL.

Values taken from patent US9770423B2, “Modulation sAPP, sAAPα and BDNF levels in individuals diagnosed with FXS and ASD” (Indiana University Research and Technology Corp., priority 2012, dated 2017).
